# Assay results taken from PMC7179198, “Chiral Pyridine-3,5-bis- (L-phenylalaninyl-L-leucinyl) Schiff Base Peptides as Potential Anticancer Agents: Design, Synthesis, and Molecular Docking Studies Targeting Lactate Dehydrogenase-A” (Molecules, 2020).
# How the values were obtained:
# MCF-7 xenografts = assay: In vivo human breast cancer xenograft; set-up: species or system nude mice; settings: MCF-7 xenograft, eight days of treatment
# From the text: In this section, we developed a breast cancer animal xenograft model for the evaluation of thein vivo anticancer potential of our newly prepared compounds. […] After wards, the noticeable effects were more or less constant up to 14 days of treatment. […] Our results are in good agreement with those previously published on the in vivo anticancer potential of Schiff bases owing to apoptosis induction.
# The breast cancer xenograft model protocol was approved by the Institutional Animal Use and Care Committee of the University of Alabama at Birmingham (50-01-05-08B). Female athymic pathogen-free nude mice (nu/nu, 4–6 weeks) were used. Firstly, MCF-7 xenografts were initiated by implanting pellets slowly releasing estrogen for two months (1.7mg 17β-estradiol/pellet) subcutaneously in the female nude mice. After 24 h, confluent MCF-7 cells were harvested, washed two times with serum-free medium, re-suspended, and injected subcutaneously (s.c.) (5 × 10^6 cells, total volume 0.2 mL) into the left inguinal area of the mice. Caliper measurement was used to measure tumor growth in two perpendicular diameters of the implant after 48 h, and its volume was determined. Mice grafted with MCF-7 were divided into different groups (7–10 mice/group). Untreated mice received the solvent only. Treated groups received different prepared derivatives as previously described.
# [1] = target: T1, recombinant human LDHA protein (Homo sapiens, UniProt P00338); assay: LDHA inhibition assay (colorimetric NADH kit); type: biochemical
# T1 construct: purchased Abcam ab93699
# Experimental: The newly synthesized compounds 4–6 were evaluated for their ability to inhibit LDHA in comparison with galloflavin as a known isoform nonselective LDHA inhibitor [44, 45]. The choice of galloflavin as a reference was based on the fact that it is potent anticancer agent and commercially available.
# Lactate dehydrogenase assay kit (Abcam, ab102526) and recombinant human LDHA protein (Abcam, ab93699) were used to assess the inhibitory effect of the tested compounds. First, we generated an NADH standard curve for colorimetric detection by measuring the OD (450 nm) at different molar amounts of NADH. The linear regression equation of the curve was derivatized in Graphpad Prism. Tested compounds were dissolved in DMSO and their inhibitory activity was assessed at 140 and 300 μM strength. Galloflavin (Sigma, SML0776) at the same molar concentration was used as a known LDH inhibitor. The master reaction mix composed of LDH assay buffer and 10 ng human LDHA […] per reaction was prepared. Tested compounds were added and the final reaction volume was adjusted to 50 μL. Absorbance at 450 nm was taken after 2–3 min (T-initial) and continued every minute for 118 min (T-final). The change in measurement over time (delta A450) was calculated as T-final minus T-initial. The amount of NADH generated by the assay between T-initial and T-final was deduced by comparing the A450 of each sample to the standard NADH standard curve. LDHA activity was calculated in milliunits per mL as the amount of NADH generated by the assay / (reaction time in minutes (118) x reaction volume in mL ([…]).
structure (smiles),measurement,setting,value
"CC(=NNC(=O)C(CC(C)C)NC(=O)C(Cc1ccccc1)NC(=O)c1cncc(C(=O)NC(Cc2ccccc2)C(=O)NC(CC(C)C)C(=O)NN=C(C)c2ccc([N+](=O)[O-])cc2)c1)c1ccc([N+](=O)[O-])cc1 (stereo not drawn) [5e, N^3,N^5-Bis{1-[(4-methyl-1-(2-(1-(4-nitrophenyl)ethylidene)hydrazinyl)-1-oxopentan-2-yl)-amino]-1-oxo-3-phenylpropan-2-yl}pyridine-3,5-dicarboxamide]",decrease in tumor growth,MCF-7 xenografts,74.2%
same,IC50,[1]; recombinant human LDHA,141.6 ± 0.98 µM
same,fold increase in LDHA inhibitory activity compared with galloflavin,[1]; vs galloflavin,~1.14 fold
